Key:
gumbo plants [1] = experiment: Example 3: herbicide-induced plant injury or death from carrier hydrogel precursor mixtures applied to plants, visual rating; type: in vivo; details: 14 days after spraying; glyphosate about 2.34% v/v, 10 gallons spray solution per acre; greenhouse; 100% = total death
Protocol: (§1) Release of an herbicide from loaded hydrogels was indirectly studied by examining plant injury or death. Hydrogel precursor mixtures were prepared according to the method 200 illustrated in FIG. 2. The precursor mixture was prepared at a lactose to methacrylic anhydride ratio of 1:0.5.
Glyphosate (as Touchdown HiTech®, Syngenta) alone (control group) or glyphosate plus hydrogel precursor mixture (test groups) was added to water to form a spray solution. The amount of glyphosate in a spray solution was approximately the same (i.e., about 2.34% v/v) for each control and test group. Test groups also included hydrogel precursor mixture at 5% v/v, 10% v/v, 20% v/v, 25% v/v, or 50% v/v of spray solution. Each group included five gumbo plants in a greenhouse. Control or test groups were sprayed at 10 gallons of spray solution per acre. In the test groups, the hydrogel precursor mixtures plus glyphosate were allowed to crosslink in ambient conditions after application to the plants.
Plant injury or death, from direct glyphosate application (control) or release of glyphosate from carrier hydrogels (tests), was measured after 14 days by a visual rating system. Results are presented in FIG. 5 as plant injury or death as a percentage, where “100% control” represents total death of a plant. […]

gumbo plants [2] = experiment: Example 4: herbicide-induced plant injury or death from precursor mixtures of different lactose to methacrylic anhydride ratios, visual rating; type: in vivo; details: 14 days after spraying; glyphosate about 2.34% v/v, 10 gallons spray solution per acre; greenhouse; 100% = total death
Protocol: as §1, with “1:0.5, 1:0.25, or 1:0.1 (test groups).” for “1:0.5.”
Glyphosate (as Touchdown HiTech®, Syngenta) alone (control group) or glyphosate plus hydrogel precursor mixture (test groups) was added to water to form a spray solution. The amount of glyphosate in spray solution was approximately the same (i.e., about 2.34% v/v) for each control and test group. Test groups also included one of the hydrogel precursor mixtures at 5% v/v. Each group included five gumbo plants in a greenhouse. Control or test groups were sprayed at 10 gallons of spray solution per acre. In the test groups, the hydrogel precursor mixtures plus glyphosate were allowed to crosslink in ambient conditions after application to the plants.
Plant injury or death, from direct glyphosate application (control) or release of glyphosate from carrier hydrogels (tests), was measured after 14 days by a visual rating system. Results are presented in FIG. 5 as plant injury or death as a percentage, where “100% control” represents total death of a plant. The same letter attributed to more than one group indicates no statistically significant difference between those groups. […]

O=C(O)CNCP(=O)(O)O [Glyphosate, N-(phosphonomethyl)glycine]
Plant injury or death (average damage on plants) (gumbo plants [1]): 85% | Plant injury or death (average damage on plants) (gumbo plants [2]): 55%

— patent publication US12642269B2, “Hydrogels as carriers of active ingredients and methods of producing the same” (WinField Solutions, LLC, priority 2018, dated 2026)
